Source: publication PMC7351026, “Serum Half-Lives for Short- and Long-Chain Perfluoroalkyl Acids after Ceasing Exposure from Drinking Water Contaminated by Firefighting Foam” (Environmental Health Perspectives, 2020)

Assay: PFAS levels in serum samples of airport employees (LC/MS/MS)
Settings: for Serum level in the first samples, median (range) / Relative composition of PFAS in serum, molar concentration basis / Relative composition of PFAS in serum, weight basis / Serum concentration, molar basis / Serum concentration, weight basis: all 26 airport employees; for Relative composition of PFAS in serum, molar concentration basis / Relative composition of PFAS in serum, weight basis: first serum samples; for Serum concentration, molar basis / Serum concentration, weight basis: median of first serum samples
From the text: All 26 employees at the airport were invited for a blood sampling between 11 and 14 September 2018 (i.e., within 11 to 14 d after the termination of contaminated drinking-water exposure). Information on age, home address, employment history, working tasks, and sick leave and vacation days in August and September were collected by questionnaire. In addition, data on the number of glasses of water consumed per day, local fish consumption, and history of blood donation and medication were collected. For female employees, questions about menstruation, pregnancy, and duration of breast-feeding were asked.
The PFAS analysis in serum from the first sampling was immediately performed and personal results were reported to the employees. […] These 17 employees submitted four rounds of blood and first morning urine samples in parallel, at 1-month intervals. In total, there were five rounds of serum sampling (started from September) and four rounds of urine sampling (from October). For modeling of elimination, all samples were reanalyzed in a single batch. We obtained 83 serum samples with a median count of 5 (range: 4–5) samples per employee, and 59 urine samples with median of 4 (range: 1–4) samples per employee. Only one employee provided a single urine sample. The study was approved by the Regional Ethical Review Board in Lund, Sweden. All employees provided written informed consent.
Venous whole blood samples were obtained and were centrifuged for 10 min at 1,500×g at room temperature to isolate the serum on site. The serum samples were collected in 6-mL BD Vacutainer® Plus plastic serum tubes without gel (BD). Urine samples were collected in 13-mL polypropylene screw cap tubes (Sarstedt). Serum and urine samples were frozen at −20°C after sampling and transported to Lund using cold chain logistics. Serum and urine samples were stored at −80°C and −20°C , respectively, before analysis.
The serum samples, QC samples, and chemical blanks were prepared in 96-well plates with 1.5-mL flat-bottom glass vials (Biotech solutions). Serum samples were thawed for 1–2 h and mixed on a vortex shaker for approximately 10 s two times. Once after all samples were thawed and a second time before pipetting the serum to the plate. Before pipetting, the tip was pre-wetted several times, drawing a volume into the tip and dispensing it back into the tube. Sample preparation procedures for serum samples consisted of 25μL serum mixed with 25μL water, 25μL methanol, 25μL isotopically labeled internal standards in 50% acetonitrile (see Table S1), and 100μL acetonitrile. Thereafter, samples were mixed vigorous by shaking for 30 min and centrifuged at 2,600×g for 10 min at room temperature. The supernatant ( 0.2mL ) was transferred to 96-well plates with 0.5-mL conical glass vials (MicroLiter Analytical Supplies) and again centrifuged at 3,000×g for 10 min before analysis. The QC samples and chemical blanks were prepared following the same procedure as the serum samples. The calibration standards were prepared in FBS the same way as the samples, except for the addition of diluted reference standards of all analyzed compounds in 25μL of the methanol solution.
Aliquots of 4μL of the sample were analyzed using LC/MS/MS. For the analysis, a C18 column ( 4μm , 2.1mm i.d.×50mm , Genesis Lightning) was used prior to the injector to filter the mobile phases. The analytical column was an Aquity BEH ( 1.7μm , 2.1mm i.d.×100mm Waters). The mobile phases (A and B) were A: 5 mM ammonium acetate in water:methanol (50:50); and B: methanol. The mobile phase was kept at 0% B for 2.5 min after injection. A gradient was then applied over 11 min to 90% B, where it was then kept for 1.5 min. The column was then conditioned at 0% B for 2 min.

[1] = 1st sampling (September 2018), count 17
[2] = 2nd sampling (October 2018), count 17
[3] = 3rd sampling (November, 2018), count 17
[4] = 4th sampling (December 2018), count 16
[5] = 5th sampling (January 2019), count 16
[6] = employees participated in first blood sampling and repeated blood and urine sampling, N=17
[7] = employees participated in first blood sampling only, N=9, 11-14 d after end of exposure

SMILES	Serum PFAS level, 25 percentile [1]	Serum PFAS level, 75 percentile [1]	Serum PFAS level, Max [1]	Serum PFAS level, Median [1]	Serum PFAS level, Min [1]	Serum PFAS level, 25 percentile [2]	Serum PFAS level, 75 percentile [2]	Serum PFAS level, Max [2]	Serum PFAS level, Median [2]	Serum PFAS level, Min [2]	Serum PFAS level, 25 percentile [3]	Serum PFAS level, 75 percentile [3]	Serum PFAS level, Max [3]	Serum PFAS level, Median [3]	Serum PFAS level, Min [3]	Serum PFAS level, 25 percentile [4]	Serum PFAS level, 75 percentile [4]	Serum PFAS level, Max [4]	Serum PFAS level, Median [4]	Serum PFAS level, Min [4]	other results
O=C(O)C(F)(F)C(F)(F)C(F)(F)C(F)(F)C(F)(F)C(F)(F)F [PFHpA, perfluoroheptanoic acid]	0.45	1.1	2.2	0.53	0.20	0.18	0.83	2.0	0.33	0.07	0.09	0.75	2.0	0.27	0.08	0.09	0.72	1.8	0.15	0.05	Serum PFAS level, 25 percentile [5]: < LOD; Serum PFAS level, 75 percentile [5]: 0.50; Serum PFAS level, Max [5]: 1.4; Serum PFAS level, Median [5]: 0.10; Serum PFAS level, Min [5]: < LOD; Serum level in the first samples, median (range): 0.46 (0.07–2.2) ng/mL; PFAS in first serum sample, median (range) [6]: 0.53 (0.20–2.2) ng/mL; PFAS in first serum sample, median (range) [7]: 0.17 (0.07–1.3) ng/mL; Initial serum PFAS level, max (females (N=7)): 2.2 ng/mL; Initial serum PFAS level, median (females (N=7)): 0.46 ng/mL; Initial serum PFAS level, min (females (N=7)): 0.08 ng/mL; Relative composition of PFAS in serum, molar concentration basis: 0.5%; Relative composition of PFAS in serum, weight basis: 0.4%; Initial serum PFAS level, Max (males (N=19)): 2.0 ng/mL; Initial serum PFAS level, Min (males (N=19)): 0.07 ng/mL; Initial serum PFAS level, median (males (N=19)): 0.45 ng/mL; Serum concentration, molar basis: 0.0013; Serum concentration, weight basis: 0.46
O=S(=O)(O)C(F)(F)C(F)(F)C(F)(F)C(F)(F)C(F)(F)C(F)(F)C(F)(F)F [PFHpS, perfluoroheptane sulfonic acid]	0.96	2.5	6.2	1.6	0.49	0.95	2.1	6.1	1.5	0.45	0.94	1.9	6.3	1.4	0.47	0.93	2.1	5.9	1.5	0.35	Serum PFAS level, 25 percentile [5]: 1.1; Serum PFAS level, 75 percentile [5]: 2.2; Serum PFAS level, Max [5]: 6.2; Serum PFAS level, Median [5]: 1.5; Serum PFAS level, Min [5]: 0.45; Serum level in the first samples, median (range): 1.3 (0.28–6.2) ng/mL; PFAS in first serum sample, median (range) [6]: 1.6 (0.49–6.2) ng/mL; PFAS in first serum sample, median (range) [7]: 0.97 (0.28–1.9) ng/mL; Initial serum PFAS level, max (females (N=7)): 2.2 ng/mL; Initial serum PFAS level, median (females (N=7)): 1.1 ng/mL; Initial serum PFAS level, min (females (N=7)): 0.49 ng/mL; Relative composition of PFAS in serum, molar concentration basis: 1.1%; Relative composition of PFAS in serum, weight basis: 1.2%; Initial serum PFAS level, Max (males (N=19)): 6.2 ng/mL; Initial serum PFAS level, Min (males (N=19)): 0.28 ng/mL; Initial serum PFAS level, median (males (N=19)): 1.4 ng/mL; Serum concentration, molar basis: 0.0029; Serum concentration, weight basis: 1.3
